This is an account of results in patent US7112605B2, “Sulfonyl-containing 3,4-diaryl-3-pyrrolin-2-ones, preparation method, and medical use thereof” (Research Institute of Materia Medica Chinese Acadamy of …, priority 2002, dated 2006).

Structures are written as SMILES. Where two headings read alike, the source gives them in different places. A value given as a limit tells only on which side of the number the result lay.

Experiment [1] deals with rat carrageenan-induced foot pad edema. Description: Rat carrageenan-induced foot pad edema assay. In kind it is in vivo, rats. To be noted: 10 mg/kg oral. How it is done:
Male Sprgue-Dawley rats (190–220 g) were fasted with free access to water at least 16 h prior to experiments. The rats were dosed orally with a 1 ml suspension of test compound in vehicle (0.5% methyl cellulose and 0.025% Tween-20) or with vehicle alone. One hour later a subplantar injection of 0.1 ml of 1% solution of caarageenan in 0.9% strile saline was administered to the right hind foot pad. Paw volume was measured with a displacement plethysmometer 2, 3, and 4 h after caarageenan injection.
Background: In the carrageenan paw model, swelling and tenderness develop within hours.

Another experiment addresses T1, Cyclooxygenase-2 (Mus musculus, UniProt Q05769).
T1 construct: endogenous in cells; host or cells: thioglycollate-elicited peritoneal macrophages of male C57BL-6J mice
T1 sequence (Q05769 18-604): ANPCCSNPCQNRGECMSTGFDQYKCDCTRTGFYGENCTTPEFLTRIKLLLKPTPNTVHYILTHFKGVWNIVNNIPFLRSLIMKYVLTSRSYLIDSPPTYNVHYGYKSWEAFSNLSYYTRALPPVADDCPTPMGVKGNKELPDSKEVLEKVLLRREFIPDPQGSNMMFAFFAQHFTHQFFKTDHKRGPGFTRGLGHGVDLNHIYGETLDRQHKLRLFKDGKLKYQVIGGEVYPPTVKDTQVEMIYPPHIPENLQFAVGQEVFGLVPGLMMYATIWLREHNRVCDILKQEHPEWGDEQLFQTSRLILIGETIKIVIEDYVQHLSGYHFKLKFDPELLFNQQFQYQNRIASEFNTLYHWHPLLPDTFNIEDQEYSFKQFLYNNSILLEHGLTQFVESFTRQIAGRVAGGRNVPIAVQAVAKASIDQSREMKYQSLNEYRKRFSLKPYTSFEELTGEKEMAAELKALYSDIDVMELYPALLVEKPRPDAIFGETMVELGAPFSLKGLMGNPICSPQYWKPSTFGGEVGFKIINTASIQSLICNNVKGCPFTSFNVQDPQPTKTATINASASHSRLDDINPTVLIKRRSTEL
Description: COX-2 assay: LPS-stimulated PGE2 production in mouse peritoneal macrophages (RIA). It counts as cell-based, mice. The note with it: for IC50: mouse peritoneal macrophages, LPS 1 mg/L 9 h, PGE2 by RIA; for COX-1/COX-2: ratio of IC50 COX-1 to IC50 COX-2. How it is done:
Cell culture: Adherent macrophages were harvested from the peritoneal cells of male mice (C57BL-6J, Level 2, from Experiment Animal Center, Academy of Military Medical Science) 3 d after the injection (ip) of brewer thioglycollate medium (5 mL/100 g body weight). […] After settlement for 2˜3 h, non-adherent cells were washed by D-Hanks' balanced salt solution. […] Cell viability was examined by trypan blue dye exclusion. All incubation procedures were performed with 5% CO2 in humidified air at 37° C.
COX-2 assay: Macrophages were incubated with test compound at different concentrations or solvent (Me2SO) for 1 h and were stimulated with LPS 1 mg/L for 9 h. The amount of PGE2 in supernatants was measured by RIA. The inhibitory ratio was calculated using the same formula as in COX-1 assay section. Cs, Ct, Cc refer to PGE2 concentration in supernatants of LPS, test compound, and control groups, respectively.
(§1) [formula] Cs, Ct, Cc refer to 6-keto-PGF1[…] concentration in supernatants of calcimycin, test compound, and control groups, respectively.
(§2) Statistical analysis: Data were expressed as the mean±SD of more than three independent experiments. Dose-inhibitory effect curves were fit through “uphill dose response curves, variable slope” using Prism, GraphPad version3.00: […]

Another experiment concerns the target T2, Cyclooxygenase-1 (Mus musculus, UniProt P22437).
T2 construct: endogenous in cells; host or cells: thioglycollate-elicited peritoneal macrophages of male C57BL-6J mice
T2 sequence (P22437 27-602): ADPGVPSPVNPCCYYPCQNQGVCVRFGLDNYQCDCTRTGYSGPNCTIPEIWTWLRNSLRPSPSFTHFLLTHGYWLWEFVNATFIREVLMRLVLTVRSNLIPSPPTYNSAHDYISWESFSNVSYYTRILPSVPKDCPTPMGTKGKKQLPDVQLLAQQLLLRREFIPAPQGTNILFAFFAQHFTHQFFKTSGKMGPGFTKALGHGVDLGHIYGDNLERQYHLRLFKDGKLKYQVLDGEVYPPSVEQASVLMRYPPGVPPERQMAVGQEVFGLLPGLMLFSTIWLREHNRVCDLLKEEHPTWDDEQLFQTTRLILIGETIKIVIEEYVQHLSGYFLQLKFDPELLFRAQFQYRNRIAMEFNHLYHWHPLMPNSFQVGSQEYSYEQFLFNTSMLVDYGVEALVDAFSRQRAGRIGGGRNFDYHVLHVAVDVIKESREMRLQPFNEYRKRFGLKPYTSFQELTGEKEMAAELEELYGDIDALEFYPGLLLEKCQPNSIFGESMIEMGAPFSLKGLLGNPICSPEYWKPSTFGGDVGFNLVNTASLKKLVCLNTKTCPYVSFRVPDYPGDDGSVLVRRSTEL
The experiment in a line: COX-1 assay: calcimycin-stimulated 6-keto-PGF1 production in mouse peritoneal macrophages (RIA). In kind it is cell-based, mice. To be noted: calcimycin 1 μmol/L 1 h, 6-keto-PGF1 by RIA. Here is the method: Cell culture: Adherent macrophages were harvested from the peritoneal cells of male mice (C57BL-6J, Level 2, from Experiment Animal Center, Academy of Military Medical Science) 3 d after the injection (ip) of brewer thioglycollate medium (5 mL/100 g body weight). Shortly, peritoneal cells obtained from 3˜4 mice were mixed and seeded in 48 well cell culture cluster (Costar) at a cell density of 1×10^9 cell/L in RPMI-1640 supplemented with 5% (v/v) newborn calf serum, 100 ku/L penicillin and […] streptomycin. After settlement for 2˜3 h, non-adherent cells were washed by D-Hanks' balanced salt solution. Then macrophages were cultured in RPMI-1640 without serum. Almost all of adherent cells were macrophages as assessed by Giemsa staining. Cell viability was examined by trypan blue dye exclusion. All incubation procedures were performed with 5% CO2 in humidified air at 37° C.
COX-1: assay Macrophages were incubated with test compound at different concentrations or solvent (Me2SO) for 1 h and were stimulated with calcimycin 1 μmol·L^−1 for 1 h. The amount of 6-keto-PGF1[…] (a stable metabolite of PGI2) in supernatants was measured by RIA according to manufacturer's guide. The inhibitory ratio was calculated as
as §1, §2

The mark [2] stands for this setting: 3 h after carrageenan, read-out: inhibitory percentage of edema, 3 hr.
Where [3] appears, read: 4 h after carrageenan, read-out: inhibitory percentage of edema, 4 hr.

As to `CCCN1CC(c2ccc(C)cc2)=C(c2ccc(S(C)(=O)=O)cc2)C1=O` [Example 104, N-Propyl-3-(4-methylsulfonylphenyl)-4-(4-methylphenyl)-2,5-dihydropyrrole-2-one], the inhibition at 10 mg/kg in experiment [1] (setting [2]) was 24.5%; in experiment [1] (setting [3]), 19.3%.

For `Cc1ccc(C2=C(c3ccc(S(C)(=O)=O)cc3)C(=O)N(C)C2)cc1` [Example 105, N-Methyl-3-(4-methylsulfonylphenyl)-4-(4-methylphenyl)-2,5-dihydropyrrole-2-one], the IC50 (in general, the midpoint of a concentration-inhibition curve) against Cyclooxygenase-2 is 782 nM; at Cyclooxygenase-1 it was over 10000 nM. Moreover, the inhibition at 10 mg/kg was 39.2% in experiment [1] (setting [2]) and 48.2% in experiment [1] (setting [3]).

For `CCCN1CC(c2ccc(F)cc2)=C(c2ccc(S(C)(=O)=O)cc2)C1=O` [Example 106, N-Propyl-3-(4-methylsulfonylphenyl)-4-(4-fluorophenyl)-2,5-dihydropyrrole-2-one], the IC50 is 611 nM against Cyclooxygenase-2 and over 10000 nM at Cyclooxygenase-1.

Turning to `CS(=O)(=O)c1ccc(C2=C(c3ccc(Cl)cc3)CN(C3CC3)C2=O)cc1` [Example 107, N-Cyclopropyl-3-(4-methylsulfonylphenyl)-4-(4-chlorophenyl)-2,5-dihydropyrrole-2-one], the IC50 was 421 nM at Cyclooxygenase-2 and over 10000 nM at Cyclooxygenase-1.

For `CN1CC(c2cccc(Cl)c2)=C(c2ccc(S(C)(=O)=O)cc2)C1=O` [Example 109, N-Methyl-3-(4-methylsulfonylphenyl)-4-(3-chlorophenyl)-2,5-dihydropyrrole-2-one], the IC50 against Cyclooxygenase-2 was 421 nM; on Cyclooxygenase-1 it was over 10000 nM.

At Cyclooxygenase-2, `CCCN1CC(c2cccc(Cl)c2)=C(c2ccc(S(C)(=O)=O)cc2)C1=O` [Example 110, N-Propyl-3-(4-methylsulfonylphenyl)-4-(3-chlorophenyl)-2,5-dihydropyrrole-2-one] yielded an IC50 of 783 nM. The inhibition at 10 mg/kg in experiment [1] (setting [2]) was found to be 25.8%; in experiment [1] (setting [3]), 36.7%.

Consider `CS(=O)(=O)c1ccc(C2=C(c3ccccc3)CN(C3CCCCC3)C2=O)cc1` [Example 112, N-Cyclohexyl-3-(4-methylsulfonylphenyl)-4-phenyl-2,5-dihydropyrrole-2-one], for which the values for the concentration for half-maximal inhibition (IC50) against Cyclooxygenase-2 and at Cyclooxygenase-1 were 1790 nM and over 10000 nM, respectively.

For the molecule `CS(=O)(=O)c1ccc(C2=C(c3cccc(F)c3)CN(C3CC3)C2=O)cc1` [Example 113, N-Cyclopropyl-3-(4-methylsulfonylphenyl)-4-(3-fluorophenyl)-2,5-dihydropyrrole-2-one], the values for the IC50 against Cyclooxygenase-2 and on Cyclooxygenase-1 were 998 nM and over 10000 nM, respectively.

On to `CN1CC(c2ccc(S(C)(=O)=O)cc2)=C(c2ccccc2)C1=O` [Example 114, N-Methyl-3-phenyl-4-(4-methylsulfonylphenyl)-2,5-dihydropyrrole-2-one], for which, on Cyclooxygenase-2, the IC50 is 14.2 nM and the COX-1/COX-2 is reported as 78.9. Also, at Cyclooxygenase-1, the IC50 is 1120 nM.

For the molecule `CS(=O)(=O)c1ccc(C2=C(c3ccccc3)C(=O)N(C3CC3)C2)cc1` [Example 116, N-Cyclopropyl-3-phenyl-4-(4-methylsulfonylphenyl)-2,5-dihydropyrrole-2-one], the IC50 came out at 25.3 nM on Cyclooxygenase-2 and 468 nM on Cyclooxygenase-1. The COX-1/COX-2 at Cyclooxygenase-2 is 18.5.

As to `CCCN1CC(c2ccc(S(C)(=O)=O)cc2)=C(c2cccc(C)c2)C1=O` [Example 121, N-Propyl-3-(3-methylphenyl)-4-(4-methylsulfonylphenyl)-2,5-dihydropyrrole-2-one], the IC50 against Cyclooxygenase-2 was 19.3 nM; at Cyclooxygenase-1, 119 nM.

With `Cc1cccc(C2=C(c3ccc(S(C)(=O)=O)cc3)CN(C3CC3)C2=O)c1` [Example 126, N-Cyclopropyl-3-(3-methylphenyl)-4-(4-methylsulfonylphenyl)-2,5-dihydropyrrole-2-one], the IC50 came to 15.5 nM against Cyclooxygenase-2 and 221 nM at Cyclooxygenase-1. Moreover, the COX-1/COX-2 at Cyclooxygenase-2 was 14.3.

Take `CS(=O)(=O)c1ccc(C2=C(c3ccc(Cl)cc3)C(=O)N(C3CCCCC3)C2)cc1` [Example 127, N-Cyclohexyl-3-(4-chlorophenyl)-4-(4-methylsulfonylphenyl)-2,5-dihydropyrrole-2-one]: the IC50 on Cyclooxygenase-2 turned out to be 20.7 nM; at Cyclooxygenase-1, 143 nM.

For the molecule `CS(=O)(=O)c1ccc(C2=C(c3ccc(F)cc3)C(=O)N(C3CC3)C2)cc1` [Example 128, N-Cyclopropyl-3-(4-fluorophenyl)-4-(4-methylsulfonylphenyl)-2,5-dihydropyrrole-2-one], the values for the IC50 at Cyclooxygenase-2 and at Cyclooxygenase-1 were 66.4 nM and over 10000 nM, respectively.

Consider `CCCN1CC(c2cccc(Br)c2)=C(c2ccc(S(N)(=O)=O)cc2)C1=O` [Example 132, N-Propyl-3-(4-aminosulfonylphenyl)-4-(3-bromophenyl)-2,5-dihydropyrrole-2-one], for which the figures for the IC50 against Cyclooxygenase-2 and on Cyclooxygenase-1 were 998 nM and over 10000 nM, respectively.

As to `CCCN1CC(c2cccc(Cl)c2)=C(c2ccc(S(N)(=O)=O)cc2)C1=O` [Example 133, N-Propyl-3-(4-aminosulfonylphenyl)-4-(3-chlorophenyl)-2,5-dihydropyrrole-2-one], the IC50 at Cyclooxygenase-2 came to 482 nM.

In the case of `CCCN1CC(c2cccc(F)c2)=C(c2ccc(S(N)(=O)=O)cc2)C1=O` [Example 135, N-Propyl-3-(4-aminosulfonylphenyl)-4-(3-fluorophenyl)-2,5-dihydropyrrole-2-one], the IC50 on Cyclooxygenase-2 is 564 nM; on Cyclooxygenase-1, over 10000 nM.

`NS(=O)(=O)c1ccc(C2=C(c3cccc(Cl)c3)CN(C3CC3)C2=O)cc1` [Example 137, N-Cylcopropyl-3-(4-aminosulfonylphenyl)-4-(3-chlorophenyl)-2,5-dihydropyrrole-2-one]: the figures for the IC50 against Cyclooxygenase-2 and at Cyclooxygenase-1 were 1690 nM and over 10000 nM, respectively.

Turning to `Cc1cccc(C2=C(c3ccc(S(N)(=O)=O)cc3)CN(C3CC3)C2=O)c1` [Example 141, N-Cylcopropyl-3-(3-methylphenyl)-4-(4-aminosulfonylphenyl)-2,5-dihydropyrrole-2-one], the figures for the IC50 at Cyclooxygenase-2 and at Cyclooxygenase-1 were 18.7 nM and over 10000 nM, respectively.
